Laboratory results published in patent publication US4692511A, “Peptide antagonists for the C5a anaphylatoxin” (Immunetech Pharmaceuticals, priority 1984, dated 1987).
Peptide text beside a SMILES is read from it.

Target: T1, C5a receptor (Homo sapiens, UniProt P21730)
T1 sequence (P21730 1-350): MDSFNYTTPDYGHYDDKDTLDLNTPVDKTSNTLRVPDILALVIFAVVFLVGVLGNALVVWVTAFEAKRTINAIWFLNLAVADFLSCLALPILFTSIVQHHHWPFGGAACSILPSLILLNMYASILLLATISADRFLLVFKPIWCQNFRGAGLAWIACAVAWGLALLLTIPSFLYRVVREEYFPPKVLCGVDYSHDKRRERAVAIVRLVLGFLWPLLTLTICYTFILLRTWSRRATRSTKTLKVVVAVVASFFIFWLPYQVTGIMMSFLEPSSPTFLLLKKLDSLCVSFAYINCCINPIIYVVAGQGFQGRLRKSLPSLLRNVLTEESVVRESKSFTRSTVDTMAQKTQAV
Assay: C5a receptor blocking activity of the peptides of the invention

SMILES: C[C@H](NC(=O)CNC(=O)[C@@H](N)CC(=O)O)C(=O)O [Asp-Gly-Ala] (H-Asp-Gly-Ala-OH)
- C5a blocking activity: displays C5a blocking activity
